Measured values taken from patent US20040157902A1, “Integrin antagonists” (priority 2001, published 2004).

Assay: partition coefficient octanol/water at pH 7.4 (logD(7.4))
Type: physicochemical
Source text: If an active ingredient is introduced into an octanol/water mixture, it partitions between the two phases at a given pH in accordance with its lipophilicity/hydrophilicity. The ratio of the partitioning of the active ingredient between the octanol and water phases is known as the partition coefficient. Absorption of active ingredients requires that they both dissolve in aqueous media and also pass through the corresponding membranes. For the latter, a certain lipophilicity of the active ingredient is necessary. The requisite lipophilicity arises from the lipophilicity of the respective membrane. Thus, absorption in the intestine requires a logD value of >−1.50 and passage through the blood-brain barrier requires a logD value of >0.5 (Lipinski C. A: Adv. Drug Del. Rev. 23 (1997), 3-25). A favourable logD value is an essential prerequisite for absorption of an active ingredient.
logD values given above and below are partition coefficients of the compounds in question octanol/water at a pH of 7.4 (logD(7.4)).

| Compound | logD |
| --- | --- |
| CS(=O)(=O)NC(=O)CC(NC(=O)CNC(=O)CCCCNc1ccccn1)c1ccc(-c2ccccc2)cc1 (stereo not drawn) [EMD 387 803] | -0.38 |
| O=C(CNC(=O)NCCCNc1ccccn1)NC(Cc1nnn[nH]1)c1ccc(-c2ccccc2)cc1 (stereo not drawn) [EMD 387 890, N-[1-biphenyl-4-yl-2-(1H-tetrazol-5-yl)ethyl]-2-{3-[3-(pyridin-2-ylamino)propyl]ureido}acetamide] | 6.19 |
| O=C(CCCCNc1ccccn1)NCC(=O)NC(Cc1nnn[nH]1)c1ccc(-c2ccccc2)cc1 (stereo not drawn) [EMD 389 889, N-[1-biphenyl-4-yl-2-(1H-tetrazol-5-yl)ethyl]-2-[5-(pyridin-2-ylamino)pentanoylamino]-acetamide] | 6.52 |
